Measured values reported in patent US11220482B2, “Aminopyridinemethanol compounds and their use” (UNIVERSITE AMIENS PICARDIE JULES VERNE, priority 2017, dated 2022).
Where two headings read alike, the source gives them in different places. One block for each compound: values may come before it.

Legend:
P. falciparum 3D7 = assay: P. falciparum growth inhibition assay, second round (SYBR Green I, ICEstimator); type: cell-based, Plasmodium falciparum
Plasmodium falciparum W2 = assay: Plasmodium falciparum susceptibility assay, first round (SYBR Green I); type: cell-based
[1] = system: Plasmodium falciparum 3D7; assay: as above; type: cell-based
[2] = in vivo, cited from earlier work
CHO-K1 cells = assay: In vitro micronucleus assay, short-term exposure; details: short-term, with S9 mix, positive control 5 μg/mL
Experimental: All the assays were conducted in duplicate. The CHO-K1 cells, suspended in McCoy's 5A medium, were transferred into Labteck wells at a concentration of 100,000 cells/mL, and incubated for 24 hours at 37° C. in CO2 (5%).
When the test was performed without metabolic activation, the test substances were added into cell cultures at concentrations previously defined.
When the assay was performed in the presence of metabolic activation, S9 mix metabolizing mixture was added to cell cultures at a concentration of 10%. Then the test substances were added to the cell cultures at concentrations previously defined.
After 3 hours of incubation at 37° C. in CO2 (5%), the culture medium was removed, the cells were rinsed with phosphate buffered saline (PBS), and then returned to culture in McCoy's 5A medium containing […] of cytochalasin B. After a 21-hour incubation period at 37° C., cells were rinsed with phosphate buffered saline (PBS), fixed with methanol and stained with 10% Giemsa for 20 minutes.
The analysis of results was performed under a microscope at ×1000 magnification. The antiproliferative activity of test substances was estimated by counting the number of binucleated cells relative to the number of mononucleated cells on a total of 500 cells for each dose (250 cells counted per well). The proliferation index (Cytokinesis Blocked Proliferative Index CBPI) was calculated using the following formula:
The cytostasis index (CI %), i.e. the percentage of cell replication inhibition, was calculated using the following formula: CI %−100−{100×(CBPItest material−1)/(CBPIsolvent control−1)}
The rates of micronuclei were evaluated for the presence of independent nuclear core entities in 1000 binucleated cells per well, which corresponds to 2000 cells examined by test substance dose. Micronuclei were identified as small nuclei well differentiated from cell nucleus, stained in the same manner and having a diameter less than one third of that of the cell nucleus.
Micronuclei rates obtained for different doses of test substances were compared to the negative control by a χ2 test. The assay was considered positive if: • A dose-response relationship was obtained between the rate of micronuclei and the doses tested, • At least one of these doses induced a statistically significant increase (P<0.05) in the number of micronucleated cells as compared to the negative control.

[3] = Plasmodium falciparum, 3D7, 48 h
[4] = W2, first round, 48-h incubation, strain resistant to CQ, sensitive to MQ, read-out: IC50 (nM) Plasmodium falciparum W2 (converted)
[5] = 48 h, read-out: IC50 (nM) Plasmodium falciparum 3D7 (converted)
[6] = 3D7, first round, 48-h incubation, strain susceptible to CQ, decreased susceptibility to MQ, read-out: IC50 (nM) Plasmodium falciparum 3D7 (converted)

IC50 (P. falciparum 3D7; [3]): < 50 nM | IC50 (Plasmodium falciparum W2; [4]): 86.9 nM
SMILES: O[C@@H](CNCCCN1CCN(C(c2ccccc2)c2ccccc2)CC1)c1cc(-c2ccc(C(F)(F)F)cc2)nc(C(F)(F)F)c1 [Compound 1n, (R)-2-((3-(4-benzhydrylpiperazin-1-yl)propyl)amino)-1-(2-(trifluoromethyl)-6-(4-(trifluoromethyl)phenyl)pyridin-4-yl)ethanol]

IC50 (P. falciparum 3D7; [5]): 43 nM | IC50 (P. falciparum 3D7; [3]): < 50 nM
SMILES: O[C@@H](CNCCCC(F)(F)F)c1cc(-c2ccc(C(F)(F)F)cc2)nc(C(F)(F)F)c1 [Compound 1p, (R)-2-((4,4,4-trifluorobutyl)amino)-1-(2-(trifluoromethyl)-6-(4-(trifluoromethyl)phenyl)pyridin-4-yl)ethan-1-ol]

IC50 [1, 6]: 79.7 ± 8.5 nM | IC50 (P. falciparum 3D7; [3]): 32.3 ± 3.2 nM | IC50 (Plasmodium falciparum W2; [4]): 31.8 ± 1 nM
SMILES: OC(c1cc(C(F)(F)F)nc2c(C(F)(F)F)cccc12)C1CCCCN1 (stereo not shown) [MQ, Mefloquine, reference compound]

IC50 (P. falciparum 3D7; [3]): 9.31 ± 2.16 nM
SMILES: O[C@H](CN[C@H](COCC1CC1)Cc1ccccc1)c1cc(-c2ccc(C(F)(F)F)cc2)nc(C(F)(F)F)c1 [Compound 1u, (S)-2-(((S)-1-(cyclopropylmethoxy)-3-phenylpropan-2-yl)amino)-1-(2-(trifluoromethyl)-6-(4-(trifluoromethyl)phenyl)pyridin-4-yl)ethan-1-ol]

IC50 (P. falciparum 3D7; [3]): 165 ± 21.9 nM
SMILES: O[C@H](CN[C@H](COCC1CC1)Cc1ccccc1)c1ccc(-c2ccc(C(F)(F)F)cc2)nc1C(F)(F)F [Compound 30u, (S)-2-(((S)-1-(cyclopropylmethoxy)-3-phenylpropan-2-yl)amino)-1-(2-(trifluoromethyl)-6-(4-(trifluoromethyl)phenyl)pyridin-3-yl)ethan-1-ol]

IC50 (P. falciparum 3D7; [3]): 21.6 ± 1.43 nM
SMILES: OC(c1cc(-c2ccc(C(F)(F)F)cc2)nc(C(F)(F)F)c1)C1CCCCN1 (racemic) [Enpiroline, reference compound]
mean half-life [2]: 140 h

IC50 (P. falciparum 3D7; [3]): 896 nM
SMILES: O[C@@H](CN[C@H](COCC1CC1)Cc1ccccc1)c1ccc(-c2ccc(C(F)(F)F)cc2)nc1C(F)(F)F [Compound 30v, (R)-2-(((S)-1-(cyclopropylmethoxy)-3-phenylpropan-2-yl)amino)-1-(2-(trifluoromethyl)-6-(4-(trifluoromethyl)phenyl)pyridin-3-yl)ethan-1-ol]

SMILES: c1ccc2c(c1)cc1ccc3cccc4ccc2c1c34 [Benzo-a-pyrene, benzo-a-pyrene, reference compound]
BI (binucleated cells) (CHO-K1 cells): 475 | MNC1 (micronucleated cell rate) (CHO-K1 cells): 28 ‰ | MNC2 (micronucleated cell rate) (CHO-K1 cells): 25 ‰ | MNC-M (mean of micronucleated cell rates) (CHO-K1 cells): 26.5 ± 2.12 ‰ | MONO (mononucleated cells) (CHO-K1 cells): 25

IC50 (P. falciparum 3D7; [5]): 31.4 nM | IC50 (P. falciparum 3D7; [3]): < 50 nM
SMILES: O[C@H](CNCCCCCCF)c1cc(-c2ccc(C(F)(F)F)cc2)nc(C(F)(F)F)c1 [Compound 1q, (S)-2-((6-fluorohexyl)amino)-1-(2-(trifluoromethyl)-6-(4-(trifluoromethyl)phenyl)pyridine-4-yl)ethan-1-ol]

SMILES: CCCCN(CCCC)CC(O)c1cc(Cl)cc2c1-c1ccc(Cl)cc1/C2=C/c1ccc(Cl)cc1 (stereo not shown) [lumefantrine]
human t1/2 [2]: 3 to 4 days

IC50 (P. falciparum 3D7; [5]): 39.3 ± 5.83 nM | IC50 (P. falciparum 3D7; [3]): < 50 nM
SMILES: O[C@H](CNCCCC(F)(F)F)c1cc(-c2ccc(C(F)(F)F)cc2)nc(C(F)(F)F)c1 [Compound 1o, (S)-2-((4,4,4-trifluorobutyl)amino)-1-(2-(trifluoromethyl)-6-(4-(trifluoromethyl)phenyl)pyridin-4-yl)ethan-1-ol]

SMILES: OC(c1cc(C(F)(F)F)nc2c(C(F)(F)F)cccc12)C1CCCCN1 (racemic) [Mefloquine, mefloquine]
human t1/2 [2]: 2-4 weeks

IC50 [1, 6]: 1380 nM | IC50 (Plasmodium falciparum W2; [4]): 523 nM
SMILES: CCCCNC[C@H](O)c1ccc(-c2ccc(C(F)(F)F)cc2)nc1C(F)(F)F [Compound 30b]

SMILES: CCN(CC)CCCC(C)Nc1ccnc2cc(Cl)ccc12 (stereo not shown) [CQ, Chloroquine, reference compound]
IC50 ([1]; 3D7, 48 h, read-out: IC50 (nM) Plasmodium falciparum 3D7): 75.9 ± 3 nM | IC50 (Plasmodium falciparum W2; W2, 48 h, read-out: IC50 (nM) Plasmodium falciparum W2): 199 ± 27 nM

SMILES: C[C@@H]1CC[C@H]2[C@@H](C)C(=O)O[C@@H]3O[C@@]4(C)CC[C@@H]1[C@]32OO4 [Artemisinin]
human t1/2 [2]: 0.042 days
